{"source": "paper PMC3973943", "about": "“Microwave-assisted synthesis of some hybrid molecules containing penicillanic acid or cephalosporanic acid moieties and investigation of their biological activities” (Medicinal Chemistry Research, 2013)", "target": "Jack bean urease (Canavalia ensiformis, UniProt P07374)", "sequence (P07374 whole entry)": "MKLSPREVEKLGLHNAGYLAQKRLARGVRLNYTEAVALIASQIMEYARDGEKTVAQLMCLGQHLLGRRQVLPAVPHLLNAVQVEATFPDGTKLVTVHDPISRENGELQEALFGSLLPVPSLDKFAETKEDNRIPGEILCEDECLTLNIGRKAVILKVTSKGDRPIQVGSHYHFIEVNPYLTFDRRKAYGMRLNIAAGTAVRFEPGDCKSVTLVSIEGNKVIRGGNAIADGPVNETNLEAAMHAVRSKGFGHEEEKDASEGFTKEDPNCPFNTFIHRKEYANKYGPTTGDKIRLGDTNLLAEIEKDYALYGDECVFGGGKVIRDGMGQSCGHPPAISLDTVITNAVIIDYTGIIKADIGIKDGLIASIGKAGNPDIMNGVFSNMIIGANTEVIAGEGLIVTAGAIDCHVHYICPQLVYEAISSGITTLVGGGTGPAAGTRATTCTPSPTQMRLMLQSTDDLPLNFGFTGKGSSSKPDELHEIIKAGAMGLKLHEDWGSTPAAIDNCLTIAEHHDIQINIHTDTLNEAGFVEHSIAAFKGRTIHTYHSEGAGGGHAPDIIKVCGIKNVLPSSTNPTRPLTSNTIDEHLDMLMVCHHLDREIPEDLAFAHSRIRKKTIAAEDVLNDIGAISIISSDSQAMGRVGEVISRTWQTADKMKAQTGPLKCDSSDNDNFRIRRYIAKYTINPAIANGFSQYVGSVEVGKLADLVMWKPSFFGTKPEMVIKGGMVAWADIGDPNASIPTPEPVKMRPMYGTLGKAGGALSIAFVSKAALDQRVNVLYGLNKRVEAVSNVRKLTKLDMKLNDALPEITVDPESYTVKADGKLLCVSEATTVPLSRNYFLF", "experiment": "indophenol ammonia assay, […] nm", "format": "biochemical", "data": [{"molecule": "NC(N)=S", "note": "[Thiourea, reference compound]", "values": [{"measurement": "IC50", "value": 717, "unit": "µM"}]}, {"molecule": "CCOC(=O)N1CCN(c2ccc(NCc3nn(CN[C@@H]4C(=O)N5C(C(=O)O)=C(COC(C)=O)CS[C@H]45)c(=S)n3-c3ccc(F)cc3)cc2F)CC1", "note": "[compound 15, ({[(6R,7R)-3-[(Acetyloxy)methyl]-7-({[3-[({4-[4-(ethoxycarbonyl)piperazin-1-yl]-3-fluorophenyl}amino)methyl]-4-(4-fluorophenyl)-5-thioxo-4,5-dihydro-1H-1,2,4-triazol-1-yl]methyl}amino)-8-oxo-5-thia-1-azabicyclo[4.2.0]oct-2-en-2-yl]carbonyl}oxy)triethyl ammonium]", "values": [{"measurement": "IC50", "value": 6.15, "unit": "µM"}]}, {"molecule": "CCOC(=O)N1CCN(c2ccc(NCc3nn(CN[C@@H]4C(=O)N5[C@@H]4SC(C)(C)[C@@H]5C(=O)O)c(=S)n3-c3ccccc3)cc2F)CC1", "note": "[compound 17, [({(5R,6R)-6-[({3-[({4-[4-(Ethoxycarbonyl)piperazin-1-yl]-3-fluorophenyl}amino)methyl]-4-phenyl-5-thioxo-4,5-dihydro-1H-1,2,4-triazol-1-yl}methyl)amino]-3,3-dimethyl-7-oxo-4-thia-1-azabicyclo[3.2.0]hept-2-yl}carbonyl)oxy](triethyl)ammonium]", "values": [{"measurement": "IC50", "value": 66.3, "unit": "µM"}]}]}
